Laboratory results published in patent US4740233A, “Substituted 1,2,4-triazolo[1,5-a]-pyrimidine-2-sulfonamides and compositions and methods of controlling undesired vegetation and suppressing the nitrification of ammonium nitrogen in soil” (The Dow Chemical Company, priority 1986, dated 1988).

Key:
cotton = assay: Preemergent control of plant species; assay type: in vivo, Gossypium spp.; conditions: Gossypium hirsutum, pre-emergence, 336 h; 0.25 lb/acre; read-out: percent preemergent control
Outline: (§1)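 Seeds sown in agricultural soil beds in a greenhouse received aqueous emulsions of test compositions applied uniformly over the bed surface at the listed rates; water-treated beds served as control. After two weeks under greenhouse growth conditions, control was scored as growth reduction versus untreated plants of the same species.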

rape = assay: Preemergent control of plant species; assay type: in vivo, Brassica napus; conditions: Brassica napus, pre-emergence, 336 h; 0.25 lb/acre; read-out: percent preemergent control
Outline: as §1

soybean = assay: Preemergent control of plant species; assay type: in vivo, Glycine max.; conditions: Glycine max, pre-emergence, 336 h; 0.25 lb/acre; read-out: percent preemergent control
Outline: as §1

sugar beet = assay: Preemergent control of plant species; assay type: in vivo, Beta saccharifera; conditions: Beta vulgaris, pre-emergence, 336 h; 0.25 lb/acre; read-out: percent preemergent control
Outline: as §1

jimsonweed = assay: Preemergent control of plant species; assay type: in vivo, Datura stramonium; conditions: Datura stramonium, pre-emergence, 336 h; 0.25 lb/acre; read-out: percent preemergent control
Outline: as §1

annual morning glory = assay: Preemergent control of plant species; assay type: in vivo, Ipomoea spp.; conditions: Ipomoea, pre-emergence, 336 h; 0.25 lb/acre; read-out: percent preemergent control
Outline: as §1

pigweed = assay: Preemergent control of plant species; assay type: in vivo, Amaranthus spp.; conditions: Amaranthus retroflexus, pre-emergence, 336 h; 0.25 lb/acre; read-out: percent preemergent control
Description: (§2) The seeds of various species of plants were planted in beds of good agricultural soil in a greenhouse. A number of compositions of the present invention, generally in the nature of an aqueous emulsion, were applied at rates listed in the table so as to deposit a predetermined amount of active ingredients uniformly throughout the surface of the bed. Another seed bed was treated only with water to serve as a control. After treatment the seed beds were maintained for two weeks under greenhouse conditions conducive for good plant growth and watered as necessary. Control refers to the reduction in growth compared to the observed results of the same untreated species.

velvetleaf = assay: Preemergent control of plant species; assay type: in vivo, Abutilon theophrasti; conditions: Abutilon theophrasti, pre-emergence, 336 h; 0.25 lb/acre; read-out: percent preemergent control
Outline: as §1

corn = assay: Preemergent control of plant species; assay type: in vivo, Zea mays; conditions: Zea mays, pre-emergence, 336 h; 0.25 lb/acre; read-out: percent preemergent control
Outline: as §1

rice = assay: Preemergent control of plant species; assay type: in vivo, Oryza sativa; conditions: Oryza sativa, pre-emergence, 336 h; 0.25 lb/acre; read-out: percent preemergent control
Outline: as §1

sorghum = assay: Preemergent control of plant species; assay type: in vivo, Sorghum vulgare; conditions: Sorghum, pre-emergence, 336 h; 0.25 lb/acre; read-out: percent preemergent control
Outline: as §1

wheat = assay: Preemergent control of plant species; assay type: in vivo, Triticum aestivum; conditions: Triticum aestivum, pre-emergence, 336 h; 0.25 lb/acre; read-out: percent preemergent control
Outline: as §1

barnyardgrass = assay: Preemergent control of plant species; assay type: in vivo, Echinochloa crusgalli; conditions: Echinochloa crus-galli, pre-emergence, 336 h; 0.25 lb/acre; read-out: percent preemergent control
Outline: as §1

crabgrass = assay: Preemergent control of plant species; assay type: in vivo, Digitaria spp.; conditions: Digitaria sanguinalis, pre-emergence, 336 h; 0.25 lb/acre; read-out: percent preemergent control
Description: as §2

johnson grass = assay: Preemergent control of plant species; assay type: in vivo, Sorghum halepense; conditions: Sorghum halepense, pre-emergence, 336 h; 0.25 lb/acre; read-out: percent preemergent control
Outline: as §1

wild oats = assay: Preemergent control of plant species; assay type: in vivo; conditions: Avena fatua, pre-emergence, 336 h; 0.25 lb/acre; read-out: percent preemergent control
Outline: as §1

yellow foxtail = assay: Preemergent control of plant species; assay type: in vivo, Setaria lutescens; conditions: Setaria, pre-emergence, 336 h; 0.25 lb/acre; read-out: percent preemergent control
Outline: as §1

yellow nutsedge = assay: Preemergent control of plant species; assay type: in vivo, Cyperus esculentus; conditions: Cyperus, pre-emergence, 336 h; 0.25 lb/acre; read-out: percent preemergent control
Outline: as §1

[1] = system: nitrification of ammonium nitrogen; assay: Suppression of nitrification of ammonium nitrogen in soil; conditions: 27° C.
Outline: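 Value is % NH4-N remaining after a two-week, 27° C incubation of treated soil held at 1/3 bar tension moisture. Nitrate was measured with an ion-selective electrode after extraction with ammonium sulfate solution and 10 min shaking.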

| SMILES | plant injury at 280.212 g/ha (cotton) | plant injury at 280.212 g/ha (rape) | plant injury at 280.212 g/ha (soybean) | plant injury at 280.212 g/ha (sugar beet) | pest or weed control at 280.212 g/ha (jimsonweed) | pest or weed control at 280.212 g/ha (annual morning glory) | pest or weed control at 280.212 g/ha (pigweed) | pest or weed control at 280.212 g/ha (velvetleaf) | plant injury at 280.212 g/ha (corn) | plant injury at 280.212 g/ha (rice) | plant injury at 280.212 g/ha (sorghum) | plant injury at 280.212 g/ha (wheat) | pest or weed control at 280.212 g/ha (barnyardgrass) | pest or weed control at 280.212 g/ha (crabgrass) | pest or weed control at 280.212 g/ha (johnson grass) | pest or weed control at 280.212 g/ha (wild oats) | pest or weed control at 280.212 g/ha (yellow foxtail) | pest or weed control at 280.212 g/ha (yellow nutsedge) | % NH4-N Remaining After 2 Weeks Incubation ([1]; 1 ppm) | % NH4-N Remaining After 2 Weeks Incubation ([1]; 0.06 ppm) | further results |
| --- | --- | --- | --- | --- | --- | --- | --- | --- | --- | --- | --- | --- | --- | --- | --- | --- | --- | --- | --- | --- | --- |
| Cc1cc(C)n2nc(S(=O)(=O)Nc3cccc(Cl)c3Cl)nc2n1 [Compound 19] | 90% | 95% | 20% | 90% | 0% | 50% | 90% | 70% | 0% | 20% | 0% | 0% | 0% | 20% | 0% | 0% | 0% | 40% |  |  |  |
| Cc1cc(C)n2nc(S(=O)(=O)Nc3ccccc3C(N)=O)nc2n1 [Compound 37] | 95% | 95% | 95% | 97% | 100% | 90% | 100% | 95% | 95% | 97% | 95% | 0% | 97% | 70% | 95% | 0% | 97% | 100% | 7% |  | % NH4-N Remaining After 2 Weeks Incubation ([1]; 0.01 ppm): 0%; % NH4-N Remaining After 2 Weeks Incubation ([1]; 0.1 ppm): 0%; % NH4-N Remaining After 2 Weeks Incubation ([1]; 10 ppm): 44% |
| Cc1cc(C)n2nc(S(=O)(=O)Nc3c(Cl)cc(F)cc3Cl)nc2n1 [Compound 44] | 85% | 93% | 80% | 97% | 100% | 20% | 95% | 0% | 10% | 70% | 93% | 70% | 40% | 90% | 80% | 40% | 70% | 90% | 71% |  | % NH4-N Remaining After 2 Weeks Incubation ([1]; 0.01 ppm): 0%; % NH4-N Remaining After 2 Weeks Incubation ([1]; 0.1 ppm): 42%; % NH4-N Remaining After 2 Weeks Incubation ([1]; 10 ppm): 95% |
| COCc1cccc(Cl)c1NS(=O)(=O)c1nc2nc(C)cc(C)n2n1 [Compound 91] | 100% | 100% | 100% | 100% | 40% |  | 100% | 70% | 30% | 50% | 0% | 20% |  | 40% | 0% | 70% | 100% |  | 55% | 15% | % NH4-N Remaining After 2 Weeks Incubation ([1]; 0.25 ppm): 46%; % NH4-N Remaining After 2 Weeks Incubation ([1]; 4 ppm): 80% |
| COc1cccc(C(F)(F)F)c1NS(=O)(=O)c1nc2nc(C)cc(C)n2n1 [Compound 104] | 100% | 100% | 100% | 100% | 100% | 100% |  | 100% | 100% | 100% | 100% | 100% | 100% | 100% | 100% | 100% | 100% | 100% |  |  |  |
| Cc1nc2nc(S(=O)(=O)Nc3ccccc3C(F)(F)F)nn2c(C)c1C [Compound 112] | 80% | 85% | 0% | 99% | 0% | 80% | 90% | 20% | 50% | 25% | 20% | 0% | 0% | 97% | 30% | 90% | 0% | 90% | 65% | 31% | % NH4-N Remaining After 2 Weeks Incubation ([1]; 0.25 ppm): 53%; % NH4-N Remaining After 2 Weeks Incubation ([1]; 4 ppm): 72% |
| Cc1cccc(Cl)c1NS(=O)(=O)c1nc2nc(C)c(C)c(C)n2n1 [Compound 113] | 30% | 90% | 0% | 100% | 0% | 0% | 100% | 60% | 0% | 40% | 0% | 0% | 20% | 90% | 50% | 0% | 50% | 50% | 69% | 16% | % NH4-N Remaining After 2 Weeks Incubation ([1]; 0.25 ppm): 39%; % NH4-N Remaining After 2 Weeks Incubation ([1]; 4 ppm): 86% |
